Common to all, as to format: cell-based
The test system of one assay is SW480 colon cancer cells. The assay is described as follows: Cell viability assay (CellTiter-Blue) in SW480 colon cancer cells. To be noted: Homo sapiens, 96 h, four days; for EC50: CellTiter-Blue; for inhibition at 10 µM: given where EC50 >10 μM, read-out: percent inhibition at 10 μM. In outline:
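Resazurin reduction (Ex 560/Em 590 nm, ~3 h reagent incubation) served as the viability read-out after SW480 cells were treated for four days at 37 °C. Doses ran from 10 μM down to 0.0045 μM in eight 1:3 steps. Curves fitted non-linearly for EC50, else % inhibition at 10 μM reported.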

The subject of assay [1] is Primary human fibroblasts derived from IPF patients (LL29 cells) treated with TGF-β1. The assay is described as follows: Inhibition of the fibrotic process: αSMA staining in TGF-β1-treated primary human fibroblasts from IPF patients (LL29 cells). The conditions noted are these: Fibroblast, 96 h; for EC50: % αSMA-positive LL29 cells, TGF-β1 20 ng/mL, 4 days; for inhibition at 10 µM: given where EC50 >10 μM, αSMA, LL29 cells, TGF-β1, 4 days, read-out: percent inhibition at 10 μM. A digest of the protocol: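 LL29 IPF-patient fibroblasts in 1% FBS stimulated with TGF-β1 (20 ng/mL) and compound (10 μM–1.87 nM, 0.1% DMSO) for 4 days at 37 °C. SYTOX-positive cells excluded; % αSMA-positive cells imaged, normalized to TGF-β1/DMSO wells; EC50 by nonlinear regression, else % inhibition at 10 μM.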

The test system of assay [2] is Wnt activity (Sp5-Luc reporter, TCF/LEF binding sites) in SW480 colon carcinoma cells. The assay can be described thus: Screening assay for Wnt activity: Sp5-Luc reporter gene assay in stably transduced SW480 colon carcinoma cells. To be noted: Homo sapiens; for EC50: overnight incubation, 10-point curve from 10 μM; for inhibition at 10 µM: given where EC50 >10 μM, read-out: percent inhibition at 10 μM. In outline: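 SW480 cells stably transduced with a luciferase reporter driven by an Sp5 promoter of eight TCF/LEF sites were plated at 4,000 cells/well in 1% FBS medium. They were exposed overnight at 37° C to a 10-point 1:3 dilution series from 10 μM (0.1% DMSO). Luminescence was normalized to DMSO for four-parameter EC50, or percent inhibition at 10 μM.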

Molecules are shown by their SMILES.

Regarding `c1ccc(-c2cccc3[nH]c(-c4n[nH]c5ccc(-c6cncc(CN7CCCC7)c6)cc45)cc23)nc1` [Compound 154, 3-(4-(Pyridin-2-yl)-1H-indol-2-yl)-5-(5-(pyrrolidin-1-ylmethyl)pyridin-3-yl)-1H-indazole], the EC50 turned out to be 2.79 µM in the assay with SW480 colon cancer cells, 0.222 µM in assay [1] and 490 nM in assay [2].

Take `c1cncc(-c2ccc3[nH]nc(-c4cc5c(-c6cccnc6)cccc5[nH]4)c3c2)c1` [Compound 88, 5-(Pyridin-3-yl)-3-(4-(pyridin-3-yl)-1H-indol-2-yl)-1H-indazole]: the inhibition at 10 µM with SW480 colon cancer cells came to 21.9%; in assay [1], 17.3%. Besides, the 50% effective concentration (EC50) in the assay with SW480 colon cancer cells was more than 10 µM; in assay [1], more than 10 µM; in assay [2] it was 500 nM.

For the molecule `O=C(Nc1cncc(-c2ccc3[nH]nc(-c4cc5c(-c6cccc(F)c6)cccc5[nH]4)c3c2)c1)C1CCCCC1` [Compound 23, N-(5-(3-(4-(3-Fluorophenyl)-1H-indol-2-yl)-1H-indazol-5-yl)pyridin-3-yl) cyclohexanecarboxamide], in the assay with SW480 colon cancer cells, the inhibition at 10 µM was 20.2%. Moreover, the EC50 is more than 10 µM in the assay on SW480 colon cancer cells, 3.29 µM in assay [1] and 595 nM in assay [2].

With `Cc1ccncc1-c1ccc2[nH]nc(-c3cc4c(-c5ccncc5)cccc4[nH]3)c2c1` [Compound 117, 5-(4-Methylpyridin-3-yl)-3-(4-(pyridin-4-yl)-1H-indol-2-yl)-1H-indazole], the inhibition at 10 µM in the assay with SW480 colon cancer cells is 20.9%; in assay [1] it was 17.7%; in assay [2], 19.6%. For the same molecule, the EC50 with SW480 colon cancer cells was more than 10 µM; in assay [1], more than 10 µM; in assay [2] it was more than 10000 nM.

Take `O=C(Nc1cncc(-c2ccc3[nH]nc(-c4cc5c(-c6ccncc6)cccc5[nH]4)c3c2)c1)C1CCCCC1` [Compound 135, N-(5-(3-(4-(Pyridin-4-yl)-1H-indol-2-yl)-1H-indazol-5-yl)pyridin-3-yl) cyclohexanecarboxamide]: the inhibition at 10 µM with SW480 colon cancer cells stood at 12.2%; in assay [1], 10.7%. The half-maximal effective concentration (EC50) is more than 10 µM with SW480 colon cancer cells, more than 10 µM in assay [1] and 4400 nM in assay [2].

In the case of `CCC(=O)Nc1cncc(-c2ccc3[nH]nc(-c4cc5c(-c6cccc(F)c6)cccc5[nH]4)c3c2)c1` [Compound 1, N-(5-(3-(4-(3-Fluorophenyl)-1H-indol-2-yl)-1H-indazol-5-yl)pyridin-3-yl) propionamide], the inhibition at 10 µM in the assay with SW480 colon cancer cells is 13.3%. Besides, the EC50 in the assay with SW480 colon cancer cells was more than 10 µM; in assay [1], 5.19 µM; in assay [2], 57 nM.

For the molecule `Fc1cccc(-c2cccc3[nH]c(-c4n[nH]c5ccc(-c6ccccn6)cc45)cc23)c1` [Compound 28, 3-(4-(3-Fluorophenyl)-1H-indol-2-yl)-5-(pyridin-2-yl)-1H-indazole], the inhibition at 10 µM with SW480 colon cancer cells stood at 17.1%. Also, the results for the half-maximal effective concentration (EC50) (in the assay with SW480 colon cancer cells; in assay [1]; in assay [2]) were more than 10 µM, 6.82 µM and 440 nM, respectively.

Take `O=C(Nc1cncc(-c2ccc3[nH]nc(-c4cc5c(-c6ccccn6)cccc5[nH]4)c3c2)c1)c1ccccc1` [Compound 151, N-(5-(3-(4-(Pyridin-2-yl)-1H-indol-2-yl)-1H-indazol-5-yl)pyridin-3-yl) benzamide]: the figures for the inhibition at 10 µM (in the assay with SW480 colon cancer cells; in assay [1]) were 17.7% and 0%, respectively. Moreover, the results for the EC50 (in the assay with SW480 colon cancer cells; in assay [1]; in assay [2]) were more than 10 µM, more than 10 µM and 150 nM, respectively.

Consider `CCNCc1cncc(-c2ccc3[nH]nc(-c4cc5ccccc5[nH]4)c3c2)c1` [Compound 258, N-((5-(3-(1H-Indol-2-yl)-1H-indazol-5-yl)pyridin-3-yl)methyl)ethanamine], for which the EC50 in the assay on SW480 colon cancer cells came out at 0.489 µM; in assay [1], 0.235 µM; in assay [2], 415 nM.

On to `O=C(Nc1cncc(-c2ccc3[nH]nc(-c4cc5c(-c6ccncc6)cccc5[nH]4)c3c2)c1)C1CC1` [Compound 132, N-(5-(3-(4-(Pyridin-4-yl)-1H-indol-2-yl)-1H-indazol-5-yl)pyridin-3-yl) cyclopropanecarboxamide], for which the EC50 in the assay on SW480 colon cancer cells came to 0.462 µM; in assay [1], 0.076 µM; in assay [2] it was 135 nM.

On to `FC1(F)CCN(Cc2cncc(-c3ccc4[nH]nc(-c5cc6c(-c7cccnc7)cccc6[nH]5)c4c3)c2)C1` [Compound 110, 5-(5-((3,3-Difluoropyrrolidin-1-yl)methyl)pyridin-3-yl)-3-(4-(pyridin-3-yl)-1H-indol-2-yl)-1H-indazole], for which the values for the inhibition at 10 µM (in the assay with SW480 colon cancer cells; in assay [2]) were 20.3% and 30.1%, respectively. Moreover, the EC50 with SW480 colon cancer cells is more than 10 µM; in assay [1], 9.98 µM; in assay [2], more than 10000 nM.

With `CS(=O)(=O)NCc1cc(F)cc(-c2cccc3[nH]c(-c4n[nH]c5ccc(-c6cncnc6)cc45)cc23)c1` [Compound 503, N-(3-Fluoro-5-(2-(5-(pyrimidin-5-yl)-1H-indazol-3-yl)-1H-indol-4-yl)benzyl) methanesulfonamide], the values for the half-maximal effective concentration (EC50) (in the assay with SW480 colon cancer cells; in assay [1]; in assay [2]) were 3.17 µM, 0.311 µM and 205 nM, respectively.

In the case of `CN(C)Cc1cncc(-c2ccc3[nH]nc(-c4cc5c(N6CCCCC6)cccc5[nH]4)c3c2)c1` [Compound 181, N,N-Dimethyl-1-(5-(3-(4-(piperidin-1-yl)-1H-indol-2-yl)-1H-indazol-5-yl)pyridin-3-yl)methanamine], the EC50 with SW480 colon cancer cells is 4.16 µM; in assay [1], 4.82 µM; in assay [2], 575 nM.

With `CN(C)Cc1cncc(-c2ccc3[nH]nc(-c4cc5c(-c6ccc(F)cc6)cccc5[nH]4)c3c2)c1` [Compound 41, 1-(5-(3-(4-(4-Fluorophenyl)-1H-indol-2-yl)-1H-indazol-5-yl)pyridin-3-yl)-N,N-dimethylmethanamine], in the assay on SW480 colon cancer cells, the inhibition at 10 µM turned out to be 10%. For the same molecule, the EC50 was more than 10 µM in the assay on SW480 colon cancer cells, 5.75 µM in assay [1] and 165 nM in assay [2].

In the case of `c1cncc(-c2cccc3[nH]c(-c4n[nH]c5ccc(-c6cncnc6)cc45)cc23)c1` [Compound 111, 3-(4-(Pyridin-3-yl)-1H-indol-2-yl)-5-(pyrimidin-5-yl)-1H-indazole], the EC50 worked out at 9.67 µM with SW480 colon cancer cells, 0.857 µM in assay [1] and 990 nM in assay [2].

Turning to `c1cc(-c2ccoc2)c2cc(-c3n[nH]c4ccc(-c5cncc(OC6CCNCC6)c5)cc34)[nH]c2c1` [Compound 716, 3-(4-(Furan-3-yl)-1H-indol-2-yl)-5-(5-(piperidin-4-yloxy)pyridin-3-yl)-1H-indazole], the EC50 turned out to be 2.18 µM in the assay on SW480 colon cancer cells, 9.99 µM in assay [1] and 628 nM in assay [2].

Regarding `CN(C)Cc1cncc(-c2ccc3[nH]nc(-c4cc5c(-c6cccc(F)c6)cccc5[nH]4)c3c2)c1` [Compound 13, 1-(5-(3-(4-(3-Fluorophenyl)-1H-indol-2-yl)-1H-indazol-5-yl)pyridin-3-yl)-N,N-dimethylmethanamine], the concentration for a half-maximal effect (EC50) in the assay on SW480 colon cancer cells is 0.494 µM; in assay [1], 0.302 µM; in assay [2], more than 10000 nM. Also, the inhibition at 10 µM in assay [2] was found to be 22.5%.

`Fc1cccc(-c2cccc3[nH]c(-c4n[nH]c5ccc(-c6cccnc6)cc45)cc23)c1` [Compound 4, 3-(4-(3-Fluorophenyl)-1H-indol-2-yl)-5-(pyridin-3-yl)-1H-indazole]: the inhibition at 10 µM in the assay on SW480 colon cancer cells was 3.7%; in assay [1], 10.4%. The values for the 50% effective concentration (EC50) (with SW480 colon cancer cells; in assay [1]; in assay [2]) were more than 10 µM, more than 10 µM and 275 nM, respectively.

(Values after patent US10604512B2, “3-(1H-indol-2-yl)-1H-indazoles and therapeutic uses thereof” (Samumed, LLC, priority 2015, dated 2020).)
